Assay results as given in ChEMBL document CHEMBL1146888, “Synthesis and cytotoxicity of leinamycin antibiotic analogues” (J Med Chem, 2006).

Tests used:
HeLa [1] = test: Cytotoxicity against human HeLa3 cell line in presence of ethanethiol by MTT assay; assay type: functional, cell-based
HeLa [2] = test: Cytotoxicity against human HeLa3 cell line by MTT assay; assay type: functional, cell-based

| SMILES | IC50 (HeLa [1]) | IC50 (HeLa [2]) |
| --- | --- | --- |
| CC1(C)O[C@H]([C@H]2COC(C)(C)O2)[C@@H](C2CC(=O)SS2)O1 (stereo partly drawn) | 16.9 µM | 35.9 µM |
| O=C1CC(CCc2ccccc2)[S+]([O-])S1 (stereo not drawn) | 24.8 µM | 68.4 µM |
| Cc1cn([C@H]2C[C@H](O[Si](C)(C)C(C)(C)C)[C@@H](C3CC(=O)SS3)O2)c(=O)[nH]c1=O (stereo partly drawn) | 16.7 µM | – |
| CC1(C)O[C@H]([C@H]2COC(C)(C)O2)[C@@H](C2CC(=O)S[S+]2[O-])O1 (stereo partly drawn) | 12.6 µM | 18.2 µM |
| Cc1cn([C@H]2C[C@H](O[Si](C)(C)C(C)(C)C)[C@@H](C3CC(=O)S[S+]3[O-])O2)c(=O)[nH]c1=O (stereo partly drawn) | 6.61 µM | 43.1 µM |
| COc1cccc2c1C(=O)c1c(O)c3c(c(O)c1C2=O)C[C@@](O)(C(C)=O)C[C@@H]3OC1C[C@H](N)[C@H](O)[C@H](C)O1 (single isomer, unassigned) [DAUNORUBICIN] | – | 2.96 µM |
| O=C1CC(CCC#CCOC2CCCCO2)SS1 (stereo not drawn) | 20.1 µM | 124 µM |
| O=C1CC(CCC#CCOC2CCCCO2)[S+]([O-])S1 (stereo not drawn) | 8.33 µM | 62.9 µM |
| CC(C)(C)[Si](C)(C)O[C@@H]1[C@H](O[Si](C)(C)C(C)(C)C)[C@@H](C2CC(=O)SS2)O[C@H]1n1ccc(=O)[nH]c1=O (stereo partly drawn) | 7.84 µM | 10 µM |
| O=C1CC([C@H]2O[C@@H](n3ccc(=O)[nH]c3=O)[C@H](O)[C@@H]2O)SS1 (stereo partly drawn) | 20.7 µM | 62.2 µM |
| Cc1cn([C@H]2C[C@H](O)[C@@H](C3CC(=O)SS3)O2)c(=O)[nH]c1=O (stereo partly drawn) | 54.6 µM | 299 µM |
| O=C1CC([C@H]2O[C@@H](n3ccc(=O)[nH]c3=O)[C@H](O)[C@@H]2O)[S+]([O-])S1 (stereo partly drawn) | 7.01 µM | 50.7 µM |
| CC(C)(C)[Si](C)(C)O[C@@H]1[C@H](O[Si](C)(C)C(C)(C)C)[C@@H](C2CC(=O)S[S+]2[O-])O[C@H]1n1ccc(=O)[nH]c1=O (stereo partly drawn) | 2.67 µM | 3.68 µM |
| Cc1cn([C@H]2C[C@H](O)[C@@H](C3CC(=O)S[S+]3[O-])O2)c(=O)[nH]c1=O (stereo partly drawn) | 29.7 µM | 119 µM |
| O=C1CC(CCc2ccccc2)SS1 (stereo not drawn) | 65.5 µM | 258 µM |
